The record followed here is ChEMBL document CHEMBL4393741, “Novel epidithiodiketopiperazines as anti-viral zinc ejectors of the Feline Immunodeficiency Virus (FIV) nucleocapsid protein as a model for HIV infection” (Bioorg Med Chem, 2019).

Some results are limits rather than exact numbers.

Series [1] is described as follows: Acute cytotoxicity against cat CRFK cells assessed as decrease in cell viability at 10 uM measured after 24 hrs by MTT assay relative to control. It is filed as cell-based, Felis catus.
Series [2] in a line: Chronic cytotoxicity against cat FL-4 cells assessed as decrease in cell viability measured after 7 days by MTT assay. Format: cell-based, Felis catus. In general terms: Formazan colour is commonly taken as a measure of viable cells.
For series [3], the system named is Feline immunodeficiency virus. As to the kind of experiment: Antiviral activity against FIV infected in cat FL-4 cells assessed as reduction in viral RNA level measured after 7 days by qRT-PCR analysis. It is filed as functional, organism-based. Conditions: FL-4, 168 h. A general note: In qPCR the cycle at which signal appears reflects the starting amount.
A short description of series [4]: Aqueous solubility of the compound. It is filed as physicochemical. The note with it: buffer.
A short description of series [5]: Therapeutic index, ratio of CC50 for cat FL-4 cells to EC50 for antiviral activity against FIV infected in cat FL-4 cells. Format: toxicity, cell-based. The note with it: read-out: Ratio CC50/EC50.
The nature of series [6]: Solubility of the compound. Format: physicochemical.

Take `C=CCN1C(=O)[C@@H]2SS[C@@]1(CC=C)C(=O)N2Cc1ccccc1` (racemic): in series [1], the Activity was > 100%. Also, in series [2], the CC50 (usually the concentration that lowers cell viability or growth by half) at 168 h was > 100 µM. In addition, the EC50 (usually the concentration giving half of the maximal effect) in series [3] was > 10000 nM. Moreover, the solubility entry in series [4] is “Insoluble”.

As to `COc1ccc(CN2C(=O)[C@@H]3SS[C@H]2C(=O)N3Cc2ccccc2)cc1` (racemic), the Activity in series [1] turned out to be 99%. In addition, the CC50 at 168 h in series [2] was 5.4 µM. Further, the EC50 in series [3] was 410 nM.

As for `Cc1nnc(C(=O)NC(C)(C)c2nc(C(=O)NCc3ccc(F)cc3)c(O)c(=O)n2C)o1` [RALTEGRAVIR], the Activity in series [1] is > 100%. Moreover, the CC50 at 168 h in series [2] is > 100 µM. In series [3], the EC50 stood at 10 nM. The selectivity ratio in series [5] was > 10000.

With `CCOC(=O)CCN1C(=O)[C@@H]2SS[C@H]1C(=O)N2Cc1ccccc1` (racemic), the Activity in series [1] was > 100%. Besides, in series [2], the CC50 at 168 h is > 10 µM. In series [3], the EC50 was 53 nM. Moreover, the selectivity ratio in series [5] was > 190. In series [6], the solubility entry was “Soluble”.

Regarding `COC(=O)CCCCCN1C(=O)[C@@H]2SS[C@H]1C(=O)N2Cc1ccccc1` (racemic), the Activity in series [1] is on record as > 100%. The CC50 at 168 h in series [2] is > 10 µM. For the same compound, in series [3], the EC50 was 34 nM. The selectivity ratio in series [5] is > 300. Also, the solubility entry in series [6] is recorded as “Soluble”.

For the compound `O=C1[C@H](S)N(Cc2ccccc2)C(=O)[C@H](S)N1Cc1ccccc1`, the Activity in series [1] is listed as > 100%. In addition, in series [2], the CC50 at 168 h was found to be 15 µM. For the same compound, in series [3], the EC50 is 1800 nM.

For `CN1C(=O)[C@]2(Cc3ccccc3)SS[C@@]1(CO)C(=O)N2C`, the Activity in series [1] was determined as 74%.

Consider `O=C1[C@@H]2SS[C@@H](C(=O)N2Cc2ccccc2)N1Cc1ccccc1` (racemic), for which, in series [1], the Activity is listed as > 100%. Further, the CC50 at 168 h in series [2] was determined as 4.7 µM. Also, the EC50 in series [3] lay within 3900 to 4000 nM. For the same compound, in series [5], the selectivity ratio came out at 1.2.

For `C=CCN1C(=O)[C@@H]2SS[C@H]1C(=O)N2Cc1ccccc1` (racemic), in series [1], the Activity was found to be 96%. Further, the CC50 at 168 h in series [2] turned out to be 5.1 µM. Moreover, the EC50 in series [3] turned out to be 2100 nM. Besides, in series [5], the selectivity ratio is 2.4.

For the compound `CCOC(=O)CCCN1C(=O)[C@@H]2SS[C@H]1C(=O)N2Cc1ccccc1` (racemic), the Activity in series [1] is given as > 100%. Also, in series [2], the CC50 at 168 h came out at 7.5 µM. Moreover, the EC50 in series [3] is 160 nM. Also, the selectivity ratio in series [5] was found to be 48. For the same compound, the solubility entry in series [6] is “Soluble”.

Take `O=C1[C@@H]2SS[C@@H](C(=O)N2Cc2cccc3ccccc23)N1Cc1ccccc1` (racemic): in series [1], the Activity was > 100%. In addition, the CC50 at 168 h in series [2] stood at 7.2 µM. Further, the EC50 in series [3] is 1900 nM. Further, the selectivity ratio in series [5] came out at 4.

Consider `C=CCN1C(=O)[C@]2(CC=C)SS[C@@]1(CC=C)C(=O)N2CC=C` (racemic), for which the Activity in series [1] is recorded as 99%. In addition, the CC50 at 168 h in series [2] was found to be 8.8 µM. Further, the EC50 in series [3] was 880 nM. In series [5], the selectivity ratio turned out to be 10.

Take `CCCCN1C(=O)[C@@H]2SS[C@H]1C(=O)N2Cc1ccccc1` (racemic): the Activity in series [1] was found to be 63%. Further, the CC50 at 168 h in series [2] is > 10 µM. For the same compound, the EC50 in series [3] came to 630 nM. In series [5], the selectivity ratio is > 16.

For `Cc1cn([C@H]2C[C@H](N=[N+]=[N-])[C@@H](CO)O2)c(=O)[nH]c1=O` [ZIDOVUDINE], the Activity in series [1] was > 100%. Also, the CC50 at 168 h in series [2] is > 100 µM. Further, the EC50 in series [3] came out at 5300 nM.

For `CN1C(=O)[C@@]23C[C@]4([C@]56C[C@@]78SS[C@@](CO)(C(=O)N7[C@H]5Nc5ccccc56)N(C)C8=O)c5ccccc5N[C@@H]4N2C(=O)[C@]1(CO)SS3` [CHAETOCIN], in series [1], the Activity came out at 11%. For the same compound, the CC50 at 168 h in series [2] is 0.0035 µM. Also, in series [3], the EC50 was 1.7 nM. Moreover, in series [5], the selectivity ratio worked out at 2.1.

On to `O=C1[C@@H]2SS[C@@H](C(=O)N2Cc2cccc(Cl)c2)N1Cc1ccccc1` (racemic), for which, in series [1], the Activity was > 100%. The CC50 at 168 h in series [2] was > 100 µM. Moreover, the EC50 in series [3] is 550 nM. In series [5], the selectivity ratio is > 184.

For `CN1C(=O)[C@]23CC4=CC=C[C@H](O)[C@H]4N2C(=O)[C@@]1(CO)SS3` [GLIOTOXIN], the Activity in series [1] is recorded as 6.1%.

For the compound `C=CC[C@@]12SS[C@@H](C(=O)N1Cc1ccccc1)N(Cc1ccccc1)C2=O` (racemic), the Activity in series [1] is reported as > 100%. Further, the CC50 at 168 h in series [2] was 6 µM. Further, the EC50 in series [3] is 88 nM. The selectivity ratio in series [5] turned out to be 69.

Regarding `CN1C(=O)[C@@H]2SS[C@H]1C(=O)N2Cc1ccccc1` (racemic), the Activity in series [1] is recorded as > 100%. Further, in series [2], the CC50 at 168 h was > 10 µM. In series [3], the EC50 worked out at 910 nM. For the same compound, in series [5], the selectivity ratio is > 11.

On to `C=CCN1C(=O)[C@]2(Cc3ccccc3)SS[C@H]1C(=O)N2Cc1ccccc1` (racemic), for which the Activity in series [1] is listed as > 100%. The CC50 at 168 h in series [2] is 79 µM. Besides, the EC50 in series [3] was 890 nM. In series [5], the selectivity ratio came out at 88.

Turning to `CN1C(=O)[C@@H]2SS[C@H]1C(=O)N2C` (racemic), the Activity in series [1] amounted to 77%. Besides, in series [2], the CC50 at 168 h is > 10 µM. In addition, in series [3], the EC50 is 3000 nM. Moreover, the selectivity ratio in series [5] was > 3. Besides, in series [6], the solubility result is “Insoluble”.

As to `CS[C@H]1C(=O)N(Cc2ccccc2)[C@@H](SC)C(=O)N1Cc1ccccc1` (relative stereo), the Activity in series [1] is recorded as 96%. For the same compound, in series [2], the CC50 at 168 h was > 100 µM. Also, the EC50 in series [3] is > 100000 nM.

Take `CC(C)N1C(=O)[C@@H]2SS[C@H]1C(=O)N2Cc1ccccc1` (racemic): the Activity in series [1] came to 50%. Further, the CC50 at 168 h in series [2] came out at 6.5 µM. In series [3], the EC50 was found to be 1600 nM. Further, in series [5], the selectivity ratio came to 4.

On to `C=CCN1C(=O)[C@@H]2SS[C@@]1(Cc1ccccc1)C(=O)N2Cc1ccccc1` (racemic), for which the Activity in series [1] is reported as 85%. For the same compound, in series [2], the CC50 at 168 h turned out to be 0.72 µM. Further, the EC50 in series [3] turned out to be 110 nM. Besides, the selectivity ratio in series [5] came to 6.7.
